Test [1] deals with T1, full length recombinant Pim-2 protein (Homo sapiens, UniProt Q9P1W9).
T1 construct: by full length recombinant Pim-1, Pim-2, or Pim-3 protein; hexahistidine tag followed by a thrombin cleavage site (N); made in house; host or cells: Sf9 (baculovirus) or E. coli (pET28)
The test can be described thus: Pim-2 enzyme assay (HTRF, phosphorylation of biotinylated-BAD (S112) peptide). The following applies: read-out: Pim2_IC50. In kind it is biochemical. Put shortly:
(§1)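 HTRF readout (europium anti-pBAD S112 antibody, streptavidin-APC) of biotin-BAD peptide phosphorylation by recombinant full-length Pim-1 or Pim-2, buffer 60 mM Hepes pH 7.0, 2 mM DTT, 0.05% BSA. Enzymes were His6-tagged, from baculovirus/Sf9 or E. coli.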

For test [2], the system named is KMS-Cell. The experiment in a line: KMS cell IC50 (Table 4). The class given is cell-based. The following applies: KMS cells.
Test [3] deals with T2, full length recombinant Pim-1 protein (Homo sapiens, UniProt P11309).
T2 construct: by full length recombinant Pim-1, Pim-2, or Pim-3 protein; hexahistidine tag followed by a thrombin cleavage site (N); made in house; host or cells: Sf9 (baculovirus) or E. coli (pET28)
The experiment in a line: Pim-1 enzyme assay (HTRF, phosphorylation of biotinylated-BAD (S112) peptide). In kind it is biochemical. The following applies: read-out: Pim_1_IC50. In short, it runs like this:
as §1
On the technique in general: In TR-FRET formats the signal depends on donor and acceptor labels being close together.

Structures are written as SMILES. Where a name gives a salt, the structure may show the parent alone. A value given as a limit tells only on which side of the number the result lay.

T1 sequence (Q9P1W9 whole entry): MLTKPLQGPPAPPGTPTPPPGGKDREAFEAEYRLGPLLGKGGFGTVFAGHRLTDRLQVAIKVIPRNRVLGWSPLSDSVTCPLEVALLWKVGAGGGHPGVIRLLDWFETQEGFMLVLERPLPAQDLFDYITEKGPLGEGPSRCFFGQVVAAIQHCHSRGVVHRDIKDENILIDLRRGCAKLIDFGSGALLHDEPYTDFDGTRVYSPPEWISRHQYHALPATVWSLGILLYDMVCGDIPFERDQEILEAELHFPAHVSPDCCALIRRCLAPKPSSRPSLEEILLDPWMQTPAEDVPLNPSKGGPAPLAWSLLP
T2 sequence (P11309 whole entry): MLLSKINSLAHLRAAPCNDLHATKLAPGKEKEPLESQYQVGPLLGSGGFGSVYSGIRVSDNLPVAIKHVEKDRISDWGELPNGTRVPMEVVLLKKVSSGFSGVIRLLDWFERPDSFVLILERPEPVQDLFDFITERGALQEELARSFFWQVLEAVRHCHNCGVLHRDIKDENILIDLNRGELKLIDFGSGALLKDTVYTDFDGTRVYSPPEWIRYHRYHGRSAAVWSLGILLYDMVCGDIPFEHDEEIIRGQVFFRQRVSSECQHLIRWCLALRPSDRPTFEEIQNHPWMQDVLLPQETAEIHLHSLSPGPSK

For `CC(O)c1cccc(-c2ccc3[nH]cc(-c4cncc(O[C@@H]5CCCNC5)n4)c3c2)c1` (mixture of isomers) [Example 359], the IC50 in test [1] was found to be 21 nM; in test [2], 4840 nM; in test [3], 9 nM.
The corresponding values for `O[C@@H]1CN(c2cncc(-c3n[nH]c4ccc(-c5c(F)cccc5F)cc34)n2)CC[C@@H]1O` (racemic) [Example 248, cis-1-(6-(5-(2,6-difluorophenyl)-1H-indazol-3-yl)-2-pyrazinyl)-3,4-piperidinediol] are 43 nM, more than 31600 nM and 17 nM.
As to `Fc1cccc(F)c1-c1ccc2[nH]nc(-c3cncc(CC4CCCNC4)n3)c2c1` (racemic) [Example 272, 5-(2,6-difluorophenyl)-3-(6-(3-piperidinylmethyl)-2-pyrazinyl)-1H-indazole ditrifluoroacetate], the figures for the IC50 in test [1], in test [2] and in test [3] were 54 nM, 13000 nM and 13 nM, respectively.
As to `O=c1cc(-c2n[nH]c3ccc(-c4ccc(Cl)cc4F)cc23)nc(O[C@@H]2CNCC[C@H]2F)[nH]1` (racemic) [Example 283, 6-(5-(4-chloro-2-fluorophenyl)-1H-indazol-3-yl)-2-((trans-4-fluoropiperidin-3-yl)oxy)pyrimidin-4(3H)-one trifluoroacetate], the IC50 came out at 1 nM in test [1], 1890 nM in test [2] and 2 nM in test [3].
The corresponding values for `CC(c1ccc2[nH]nc(-c3cncc(O[C@H]4CNCCC45CC5)n3)c2c1)C(F)(F)F` (single isomer, unassigned) [Example 259] are 6 nM, 2800 nM and 13 nM.
The corresponding values for `CC(c1ccc2[nH]nc(-c3cncc(O[C@H]4CNCCC45CC5)n3)c2c1)C(F)(F)F` (single isomer, unassigned) [Example 260] are 5 nM, 2190 nM and 9 nM.
In the case of `CC(C)C1CCNCC1Oc1cncc(-c2n[nH]c3ccc(-c4c(F)cccc4F)cc23)n1` (single isomer, unassigned) [Example 395], the figures for the IC50 in test [1], in test [2] and in test [3] were 9 nM, 10000 nM and 6 nM, respectively.
For `Fc1cccc(F)c1-c1ccc2[nH]nc(-c3cncc(OC4C=CCNC4)n3)c2c1` (single isomer, unassigned) [Example 427], the results for the IC50 in test [1], in test [2] and in test [3] were 37 nM, more than 15800 nM and 13 nM, respectively.
The corresponding values for `Fc1cccc(F)c1-c1ccc2[nH]nc(-c3cncc(OC4CCNCC45CC5)n3)c2c1` (single isomer, unassigned) [Example 430] are 6 nM, 7850 nM and 1 nM.
The corresponding values for `Fc1cccc(F)c1-c1ccc2[nH]cc(-c3cncc(OC4CNCCC45CC5)n3)c2c1` (single isomer, unassigned) [Example 438] are 2 nM, 11900 nM and 1 nM.
For the compound `CC1CNCC(Oc2cncc(-c3n[nH]c4ccc(-c5c(F)cccc5F)cc34)n2)C1` (single isomer, unassigned) [Example 469], the IC50 was determined as 4 nM in test [1], 3050 nM in test [2] and 2 nM in test [3].
As to `CC1CNCC(Oc2nc(O)cc(-c3n[nH]c4ccc(-c5c(F)cccc5F)cc34)n2)C1` (single isomer, unassigned) [Example 568], the IC50 in test [1] was 21 nM; in test [2], 2090 nM; in test [3], 20 nM.
As to `CC1CNCC(Oc2nc(O)cc(-c3n[nH]c4ccc(-c5c(F)cccc5F)cc34)n2)C1` (single isomer, unassigned) [Example 569], the IC50 stood at 1 nM in test [1], 282 nM in test [2] and 1 nM in test [3].
For `O=C(NC1CC1)c1cccc(-c2ccc3[nH]nc(-c4cncc(O[C@H]5CNCCC56CC6)n4)c3c2)c1` [Example 247, 3-(3-(6-((4R)-6-azaspiro[25]oct-4-yloxy)-2-pyrazinyl)-1H-indazol-5-yl)-N-cyclopropylbenzamide], the figures for the IC50 in test [1], in test [2] and in test [3] were 4 nM, 4310 nM and 4 nM, respectively.
For the compound `CC(C)c1ccc2[nH]nc(-c3cncc(O[C@H]4CNCCC45CC5)n3)c2c1` [Example 253, 3-(6-((4R)-6-azaspiro[2.5]oct-4-yloxy)-2-pyrazinyl)-5-(1-methylethyl)-1H-indazole], the IC50 in test [1] stood at 9 nM; in test [2], 5580 nM; in test [3], 9 nM.
Regarding `C=C(C)c1ccc2[nH]nc(-c3cncc(O[C@H]4CNCCC45CC5)n3)c2c1` [Example 256, 3-(6-((4R)-6-azaspiro[2.5]oct-4-yloxy)-2-pyrazinyl)-5-(1-methylethenyl)-1H-indazole], the IC50 was 11 nM in test [1], 3280 nM in test [2] and 6 nM in test [3].
Consider `C=C(c1ccc2[nH]nc(-c3cncc(O[C@H]4CNCCC45CC5)n3)c2c1)C(F)(F)F` [Example 257, 3-(6-((4R)-6-azaspiro[2.5]oct-4-yloxy)-2-pyrazinyl)-5-(1-(trifluoromethyl)ethenyl)-1H-indazole], for which the IC50 in test [1] is 2 nM; in test [2] it was 1170 nM; in test [3], 4 nM.
The corresponding values for `CC(c1ccc2[nH]nc(-c3cncc(O[C@H]4CNCCC45CC5)n3)c2c1)C(F)(F)F` (stereo partly drawn) [Example 258, 3-(6-((4R)-6-azaspiro[25]oct-4-yloxy)-2-pyrazinyl)-5-(2,2,2-trifluoro-1-methylethyl)-1H-indazole] are 6 nM, 3190 nM and 9 nM.
The corresponding values for `FC(F)(F)C1(c2ccc3[nH]nc(-c4cncc(O[C@H]5CNCCC56CC6)n4)c3c2)CC1` [Example 261, 3-(6-((4R)-6-azaspiro[2.5]oct-4-yloxy)-2-pyrazinyl)-5-(1-(trifluoromethyl)cyclopropyl)-1H-indazole] are 4 nM, 1490 nM and 6 nM.
As for `CC1(c2ccc3[nH]nc(-c4cncc(O[C@H]5CNCCC56CC6)n4)c3c2)CC1` [Example 262, 3-(6-((4R)-6-azaspiro[2.5]oct-4-yloxy)-2-pyrazinyl)-5-(1-methylcyclopropyl)-1H-indazole], the IC50 in test [1] worked out at 5 nM; in test [2] it was 2220 nM; in test [3] it was 4 nM.
The corresponding values for `COC(=O)c1ccc2[nH]nc(-c3cncc(O[C@H]4CNCCC45CC5)n3)c2c1` [Example 265, methyl 3-(6-((4R)-6-azaspiro[25]oct-4-yloxy)-2-pyrazinyl)-1H-indazole-5-carboxylate bis(2,2,2-trifluoroacetate)] are 35 nM, 5780 nM and 9 nM.
Taken in the same sequence, the figures for `N#CCc1ccc2[nH]nc(-c3cncc(O[C@H]4CNCCC45CC5)n3)c2c1` [Example 269, (3-(6-((4R)-6-azaspiro[25]oct-4-yloxy)-2-pyrazinyl)-1H-indazol-5-yl)acetonitrile 2,2,2-trifluoroacetate] were 99 nM, 7380 nM and 20 nM.
Taken in the same sequence, the figures for `c1cc(-c2ccc3[nH]cc(-c4cncc(O[C@@H]5CCCNC5)n4)c3c2)cc(-c2cc[nH]n2)c1` [Example 351] were 178 nM, more than 31600 nM and 20 nM.
On to `c1cc(-c2ccc3[nH]cc(-c4cncc(O[C@@H]5CCCNC5)n4)c3c2)cc(-c2nnn[nH]2)c1` [Example 355], for which the IC50 in test [1] was 104 nM; in test [2], more than 31600 nM; in test [3], 20 nM.
The corresponding values for `c1cc(-c2ccc3[nH]cc(-c4cncc(O[C@@H]5CCCNC5)n4)c3c2)cc(-c2ccno2)c1` [Example 356] are 41 nM, 12600 nM and 6 nM.
The corresponding values for `Cc1nc(-c2cccc(-c3ccc4[nH]cc(-c5cncc(O[C@@H]6CCCNC6)n5)c4c3)c2)cs1` [Example 357] are 179 nM, more than 31600 nM and 13 nM.
Taken in the same sequence, the figures for `c1ccc(-c2ccc3[nH]cc(-c4cncc(O[C@@H]5CCCNC5)n4)c3c2)cc1` [Example 358] were 20 nM, 8520 nM and 4 nM.
Regarding `CC[C@@H]1CCNC[C@H]1Oc1cncc(-c2n[nH]c3ccc(-c4c(F)cccc4F)cc23)n1` [Example 397], the values for the IC50 in test [1], in test [2] and in test [3] were 144 nM, 14300 nM and 20 nM, respectively.
Taken in the same sequence, the figures for `CC[C@H]1CCNC[C@@H]1Oc1cncc(-c2n[nH]c3ccc(-c4c(F)cccc4F)cc23)n1` [Example 398, 5-(2,6-difluorophenyl)-3-(6-(((3R,4S)-4-ethyl-3-piperidinyl)oxy)-2-pyrazinyl)-1H-indazole] were 12 nM, 10700 nM and 9 nM.
The corresponding values for `N#Cc1ccccc1-c1ccc2[nH]nc(-c3cncc(O[C@H]4CNCCC45CC5)n3)c2c1` [Example 408] are 1 nM, 1300 nM and 1 nM.
Turning to `CC(=O)Nc1ccc(-c2ccc3[nH]nc(-c4cncc(O[C@H]5CNCCC56CC6)n4)c3c2)c(F)c1` [Example 462], the IC50 came out at 1 nM in test [1] and 560 nM in test [2].
Take `Nc1ccc(-c2ccc3[nH]nc(-c4cncc(O[C@H]5CNCCC56CC6)n4)c3c2)c(F)n1` [Example 466]: the results for the IC50 in test [1] and in test [2] were 1 nM and 346 nM, respectively.
For the compound `O=c1cc(-c2n[nH]c3cc(F)c(-c4c(F)cccc4F)cc23)nc(O[C@H]2CNCC[C@@H]2F)[nH]1` [Example 544], the IC50 in test [1] amounted to 1 nM; in test [2] it was 633 nM.
